Measured values taken from ChEMBL document CHEMBL1221281, “Discovery of 2-(4-((1H-1,2,4-triazol-1-yl)methyl)-5-(4-bromophenyl)-1-(2-chlorophenyl)-1H-pyrazol-3-yl)-5-tert-butyl-1,3,4-thiadiazole (GCC2680) as a potent, selective and orally efficacious cannabinoid-1 receptor antagonist” (Bioorg Med Chem, 2010).

Columns and labels:
[1] = Selectivity ratio of IC50 for human CB2 receptor to IC50 for CB1 receptor in Sprague-Dawley rat cerebellum; type: tissue-based
[2] = biological target: Cannabinoid receptor 2 (Homo sapiens, UniProt P34972); assay: Displacement of [3H]WIN-55212-2 from human CB2 receptor expressed in CHO-K1 cells after 1 hr by liquid scintillation counting; type: cell-based
[3] = test system: Mus musculus; assay: Antiobesity activity in diet-induced obesity C57BL/6 mouse model assessed as reduction of body weight at 10 mg/kg, po qd for 14 days; type: functional; design: scale not given: the % may be the effect or the level left
[4] = biological target: Cytochrome P450 2D6 (Homo sapiens, UniProt P10635); assay: Inhibition of CYP2D6 in human liver microsomes after 30 mins; type: ADME, Microsome
[5] = biological target: T1, Cytochrome P450 1A2 (Homo sapiens, UniProt P05177); assay: Inhibition of CYP1A2 in human liver microsomes after 30 mins; type: ADME, Microsome
T1 sequence (P05177 whole entry): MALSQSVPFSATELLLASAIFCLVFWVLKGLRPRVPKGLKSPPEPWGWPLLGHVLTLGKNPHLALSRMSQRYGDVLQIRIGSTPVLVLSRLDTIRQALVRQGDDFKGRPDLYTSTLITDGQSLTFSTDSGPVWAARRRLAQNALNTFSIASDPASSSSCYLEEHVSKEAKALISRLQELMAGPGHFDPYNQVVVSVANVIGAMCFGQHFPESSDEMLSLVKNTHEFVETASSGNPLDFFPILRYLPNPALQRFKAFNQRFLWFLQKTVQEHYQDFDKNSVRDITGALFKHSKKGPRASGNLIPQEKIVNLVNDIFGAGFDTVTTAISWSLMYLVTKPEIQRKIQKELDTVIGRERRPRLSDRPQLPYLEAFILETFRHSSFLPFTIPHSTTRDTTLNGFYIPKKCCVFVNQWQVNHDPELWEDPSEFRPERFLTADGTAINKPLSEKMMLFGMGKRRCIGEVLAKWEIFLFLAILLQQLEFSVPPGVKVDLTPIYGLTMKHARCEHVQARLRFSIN

[6] = test system: Nucleic Acid; assay: Induction of DNA damage up to 50 uM after 2 hrs by comet assay; type: nucleic-acid assay
[7] = biological target: Cytochrome P450 2C9 (Homo sapiens, UniProt P11712); assay: Inhibition of CYP2C9 in human liver microsomes after 30 mins; type: ADME, Microsome
[8] = biological target: Cannabinoid receptor 1 (Rattus norvegicus, UniProt P20272)
Description: Displacement of [3H]CP-55940 from CB1 receptor in Sprague-Dawley rat cerebellum after 1 hr by liquid scintillation counting

[9] = biological target: Cytochrome P450 3A4 (Homo sapiens, UniProt P08684); assay: Inhibition of CYP3A4 in human liver microsomes after 30 mins; type: ADME, Microsome
[10] = Half life in Sprague-Dawley rat at 1 mg/kg, iv; type: ADME, organism-based; design: dose 1 mg/kg, route intravenous; settings: in vivo
[11] = biological target: Voltage-gated inwardly rectifying potassium channel KCNH2 (Homo sapiens, UniProt Q12809); assay: Inhibition of human ERG at holding potential of -80 mV to +40 mV
[12] = Mutagenic activity in Salmonella Typhimurium TA100 assessed as number of spontaneous and drug-induced revertants after 48 hrs by Ames test; type: toxicity; settings: salmonella enterica subsp. enterica serovar typhimurium
[13] = Cmax in Sprague-Dawley rat at 5 mg/kg, po; type: ADME, organism-based; design: dose 5 mg/kg, route oral; settings: in vivo
[14] = Cmax in Sprague-Dawley rat at 1 mg/kg, iv; type: ADME, organism-based; design: dose 1 mg/kg, route intravenous; settings: in vivo
[15] = test system: Rattus norvegicus; assay: AUC (0 to infinity) in Sprague-Dawley rat at 1 mg/kg, iv; type: ADME, organism-based, Plasma; design: time infinity, dose 1 mg/kg, route intravenous; settings: in vivo
[16] = test system: Rattus norvegicus; assay: AUC (0 to infinity) in Sprague-Dawley rat at 5 mg/kg, po; type: ADME, organism-based, Plasma; design: time infinity, dose 5 mg/kg, route oral; settings: in vivo
[17] = test system: Rattus norvegicus; assay: Clast in Sprague-Dawley rat at 1 mg/kg, iv; type: ADME, organism-based; design: dose 1 mg/kg, route intravenous; settings: in vivo
[18] = Oral bioavailability in Sprague-Dawley rat at 5 mg/kg, po; type: ADME, organism-based; settings: in vivo
[19] = Half life in Sprague-Dawley rat at 5 mg/kg, po; type: ADME, organism-based; design: dose 5 mg/kg, route oral; settings: in vivo
[20] = test system: Rattus norvegicus; assay: Antiobesity activity in diet-induced obesity Sprague-Dawley rat model assessed as reduction of body weight administered at 10 mg/kg, po qd for 13 days; type: functional; design: scale not given: the % may be the effect or the level left
[21] = Tmax in Sprague-Dawley rat at 5 mg/kg, po; type: ADME, organism-based; design: dose 5 mg/kg, route oral; settings: in vivo
[22] = Clearance in Sprague-Dawley rat at 1 mg/kg, iv; type: ADME, organism-based; design: dose 1 mg/kg, route intravenous; settings: in vivo
[23] = test system: Rattus norvegicus; assay: Clast in Sprague-Dawley rat at 5 mg/kg, po; type: ADME, organism-based; design: dose 5 mg/kg, route oral; settings: in vivo
[24] = Ratio of drug level in brain to plasma in Sprague-Dawley rat; type: ADME
[25] = test system: HEK293; assay: Cytotoxicity against human HEK293 cells; type: cell-based
[26] = test system: Mus musculus; assay: Antiobesity activity in diet-induced obesity C57BL/6 mouse model assessed as reduction of body weight at 3 mg/kg, po qd for 13 days; type: functional; design: scale not given: the % may be the effect or the level left
[27] = test system: Vero; assay: Cytotoxicity against african green monkey Vero cells; type: cell-based; settings: Chlorocebus sabaeus
[28] = Cytotoxicity against human HuH7 cells; type: cell-based; settings: Huh-7
[29] = test system: HCT-116; assay: Cytotoxicity against human HCT116 cells; type: cell-based

Voltage-gated inwardly rectifying potassium channel KCNH2, sequence (Q12809 whole entry): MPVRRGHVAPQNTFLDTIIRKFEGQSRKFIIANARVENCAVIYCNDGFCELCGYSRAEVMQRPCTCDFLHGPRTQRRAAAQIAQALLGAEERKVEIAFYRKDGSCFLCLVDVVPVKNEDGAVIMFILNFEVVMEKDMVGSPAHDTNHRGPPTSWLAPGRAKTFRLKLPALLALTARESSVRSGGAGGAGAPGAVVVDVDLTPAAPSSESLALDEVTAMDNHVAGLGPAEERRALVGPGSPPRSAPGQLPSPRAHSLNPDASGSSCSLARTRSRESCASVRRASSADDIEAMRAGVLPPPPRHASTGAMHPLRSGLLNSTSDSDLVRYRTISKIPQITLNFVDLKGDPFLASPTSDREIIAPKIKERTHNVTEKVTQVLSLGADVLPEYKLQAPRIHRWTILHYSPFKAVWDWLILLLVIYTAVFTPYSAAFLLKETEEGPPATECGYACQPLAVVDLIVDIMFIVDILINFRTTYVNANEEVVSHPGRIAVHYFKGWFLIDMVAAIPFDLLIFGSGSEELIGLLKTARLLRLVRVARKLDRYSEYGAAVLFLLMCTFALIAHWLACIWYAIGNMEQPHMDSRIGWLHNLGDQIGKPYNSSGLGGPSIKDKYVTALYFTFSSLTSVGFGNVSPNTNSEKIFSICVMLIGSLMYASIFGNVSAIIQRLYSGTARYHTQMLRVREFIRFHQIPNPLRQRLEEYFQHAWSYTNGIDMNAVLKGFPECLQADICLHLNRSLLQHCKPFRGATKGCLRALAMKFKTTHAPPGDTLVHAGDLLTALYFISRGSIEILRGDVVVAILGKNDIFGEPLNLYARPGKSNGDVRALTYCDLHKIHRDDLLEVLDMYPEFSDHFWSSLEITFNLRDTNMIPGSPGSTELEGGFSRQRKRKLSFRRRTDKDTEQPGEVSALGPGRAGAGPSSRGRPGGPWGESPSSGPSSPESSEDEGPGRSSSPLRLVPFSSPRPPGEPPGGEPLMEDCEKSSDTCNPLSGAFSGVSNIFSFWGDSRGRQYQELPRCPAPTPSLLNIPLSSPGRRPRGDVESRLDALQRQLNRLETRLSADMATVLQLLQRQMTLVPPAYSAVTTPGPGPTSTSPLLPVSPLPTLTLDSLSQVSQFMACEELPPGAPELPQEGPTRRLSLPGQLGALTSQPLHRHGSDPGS
Cannabinoid receptor 2, sequence (P34972 whole entry): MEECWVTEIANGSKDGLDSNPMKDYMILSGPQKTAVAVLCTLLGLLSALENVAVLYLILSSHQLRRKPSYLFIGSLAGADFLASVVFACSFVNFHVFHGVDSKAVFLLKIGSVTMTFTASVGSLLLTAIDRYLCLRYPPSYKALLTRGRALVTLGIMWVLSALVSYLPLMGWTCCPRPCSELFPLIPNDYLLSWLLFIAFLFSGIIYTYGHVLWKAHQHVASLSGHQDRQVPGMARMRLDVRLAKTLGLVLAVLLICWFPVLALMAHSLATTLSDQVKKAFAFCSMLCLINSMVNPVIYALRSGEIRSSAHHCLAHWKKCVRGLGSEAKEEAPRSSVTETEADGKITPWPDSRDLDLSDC
Cannabinoid receptor 1, sequence (P20272 whole entry): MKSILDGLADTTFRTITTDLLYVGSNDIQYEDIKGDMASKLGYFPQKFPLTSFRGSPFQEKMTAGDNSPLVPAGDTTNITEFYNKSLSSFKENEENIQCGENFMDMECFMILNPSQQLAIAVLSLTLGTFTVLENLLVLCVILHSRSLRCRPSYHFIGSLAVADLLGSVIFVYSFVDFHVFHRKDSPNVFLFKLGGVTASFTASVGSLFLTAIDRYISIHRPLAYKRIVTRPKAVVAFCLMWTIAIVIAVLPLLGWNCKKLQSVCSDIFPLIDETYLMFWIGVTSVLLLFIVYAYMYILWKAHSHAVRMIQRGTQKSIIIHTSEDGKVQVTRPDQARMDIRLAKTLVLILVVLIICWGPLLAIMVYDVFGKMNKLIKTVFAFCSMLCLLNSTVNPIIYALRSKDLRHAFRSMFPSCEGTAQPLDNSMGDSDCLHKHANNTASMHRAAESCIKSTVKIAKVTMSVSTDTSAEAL
Cytochrome P450 2D6, sequence (P10635 whole entry): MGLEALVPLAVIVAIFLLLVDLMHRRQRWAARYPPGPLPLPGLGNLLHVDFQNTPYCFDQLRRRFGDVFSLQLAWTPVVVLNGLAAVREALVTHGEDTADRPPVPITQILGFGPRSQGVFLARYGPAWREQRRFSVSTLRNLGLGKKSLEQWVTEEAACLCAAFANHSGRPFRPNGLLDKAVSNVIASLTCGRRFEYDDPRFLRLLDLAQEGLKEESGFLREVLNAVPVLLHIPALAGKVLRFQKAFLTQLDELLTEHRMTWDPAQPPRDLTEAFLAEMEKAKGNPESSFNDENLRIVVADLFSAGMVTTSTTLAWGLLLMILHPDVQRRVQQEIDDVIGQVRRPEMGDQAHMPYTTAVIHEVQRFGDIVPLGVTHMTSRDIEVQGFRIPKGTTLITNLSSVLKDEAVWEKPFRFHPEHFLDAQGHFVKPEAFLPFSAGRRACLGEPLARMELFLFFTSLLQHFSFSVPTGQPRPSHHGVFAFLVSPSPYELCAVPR
Cytochrome P450 3A4, sequence (P08684 whole entry): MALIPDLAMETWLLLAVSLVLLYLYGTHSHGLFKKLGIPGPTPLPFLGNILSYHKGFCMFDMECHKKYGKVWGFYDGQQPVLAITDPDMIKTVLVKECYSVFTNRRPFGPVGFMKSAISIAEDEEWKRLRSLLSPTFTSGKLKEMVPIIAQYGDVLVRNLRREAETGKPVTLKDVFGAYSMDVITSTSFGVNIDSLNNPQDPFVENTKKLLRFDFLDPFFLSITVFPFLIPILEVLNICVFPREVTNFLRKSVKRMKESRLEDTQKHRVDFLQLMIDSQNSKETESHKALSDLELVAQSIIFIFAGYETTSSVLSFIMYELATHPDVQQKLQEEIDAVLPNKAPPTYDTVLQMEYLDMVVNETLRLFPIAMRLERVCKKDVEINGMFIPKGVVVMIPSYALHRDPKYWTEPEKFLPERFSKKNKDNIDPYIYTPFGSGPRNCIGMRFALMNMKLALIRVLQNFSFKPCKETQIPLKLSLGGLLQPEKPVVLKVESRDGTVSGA
Cytochrome P450 2C9, sequence (P11712 whole entry): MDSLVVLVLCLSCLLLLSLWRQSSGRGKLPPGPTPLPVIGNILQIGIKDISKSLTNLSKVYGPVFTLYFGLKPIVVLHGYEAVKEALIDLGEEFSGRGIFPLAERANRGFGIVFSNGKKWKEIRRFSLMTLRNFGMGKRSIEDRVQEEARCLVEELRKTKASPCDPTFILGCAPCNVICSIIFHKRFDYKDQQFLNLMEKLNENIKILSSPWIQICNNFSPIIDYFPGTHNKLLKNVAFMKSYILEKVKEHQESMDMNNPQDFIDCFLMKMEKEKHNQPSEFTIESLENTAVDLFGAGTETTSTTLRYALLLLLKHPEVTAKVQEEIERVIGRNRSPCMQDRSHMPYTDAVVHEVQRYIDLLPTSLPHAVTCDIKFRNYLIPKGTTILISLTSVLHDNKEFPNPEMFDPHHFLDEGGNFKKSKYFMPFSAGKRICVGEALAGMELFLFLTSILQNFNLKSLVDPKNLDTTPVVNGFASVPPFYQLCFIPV

SMILES | Ratio IC50 [1] | IC50 [2] [nM] | Activity [3] [%] | IC50 [8] [nM] | further results
FC(F)(F)C1(c2nnc(-c3nn(-c4ccc(Cl)cc4Cl)c(-c4ccc(Cl)cc4)c3Cn3cncn3)s2)CC1 | 1590 | 3630 | 23.68 | – | –
CC(C)(C)c1nnc(-c2nn(-c3ccc(Cl)cc3Cl)c(-c3ccc(Br)cc3)c2Cn2cncn2)s1 | – | 430 | 23.68 | 1.54 | IC50 [4]: > 20000 nM; IC50 [5]: 2700 nM; Activity [6]: Non-toxic; IC50 [7]: 2600 nM; IC50 [9]: > 20000 nM
FC(F)(F)C1(c2nnc(-c3nn(-c4ccccc4Cl)c(-c4ccc(Br)cc4)c3Cn3cncn3)s2)CCC1 | 87 | 73.6 | – | 0.848 | –
Cc1c(C(=O)NN2CCCCC2)nn(-c2ccc(Cl)cc2Cl)c1-c1ccc(Cl)cc1 [RIMONABANT] | – | – | 18.02 | – | half-life [10]: 3.09 h; IC50 [11]: 4800 nM; Activity [12]: Non-toxic; Cmax [13]: 290 ng/mL; Cmax [14]: 300 ng/mL; IC50 [4]: > 20000 nM; IC50 [5]: > 20000 nM; AUC [15]: 12.59 min/µg/mL; AUC [16]: 33.4 min/µg/mL; Clast [17]: 10 ng/mL; bioavailability [18]: 53.1%; half-life [19]: 8.23 h; Activity [20]: 10.61%; Tmax [21]: 0.5 h; Activity [6]: Non-toxic; clearance [22]: 82.4 mL/min/kg; IC50 [9]: > 20000 nM
Clc1ccc(-c2c(Cn3cncn3)c(-c3nnc(C4(c5ccccc5)CC4)s3)nn2-c2ccc(Cl)cc2Cl)cc1 | – | – | 23.68 | – | –
Clc1ccc(-n2nc(-c3nnc(C4(c5ccccc5)CC4)s3)c(Cn3cncn3)c2-c2ccc(Br)cc2)c(Cl)c1 | – | – | 23.68 | 2.23 | –
Cc1ccc(C2(c3nnc(-c4nn(-c5ccc(Cl)cc5Cl)c(-c5ccc(Cl)cc5)c4Cn4cncn4)s3)CC2)cc1 | – | – | 23.68 | – | –
C[C@H](NC(=O)C(C)(C)Oc1ccc(C(F)(F)F)cn1)[C@@H](Cc1ccc(Cl)cc1)c1cccc(C#N)c1 [TARANABANT] | – | – | 29.55 | – | half-life [10]: 2.76 h; IC50 [11]: 14200 nM; Activity [12]: Non-toxic; Cmax [13]: 360 ng/mL; Cmax [14]: 470 ng/mL; IC50 [4]: 590 nM; IC50 [5]: > 20000 nM; AUC [15]: 24.75 min/µg/mL; AUC [16]: 83.64 min/µg/mL; Clast [17]: 10 ng/mL; Clast [23]: 20 ng/mL; bioavailability [18]: 67.6%; half-life [19]: 14.8 h; Activity [20]: 17.16%; Tmax [21]: 0.5 h; Activity [6]: Non-toxic; BPR [24]: 52%; IC50 [7]: 930 nM; clearance [22]: 40.8 mL/min/kg
FC(F)(F)C1(c2nnc(-c3nn(-c4ccccc4Cl)c(-c4ccc(Cl)cc4)c3Cn3cncn3)s2)CC1 | – | – | 23.68 | 1.66 | –
CC1(c2nnc(-c3nn(-c4ccc(Cl)cc4Cl)c(-c4ccc(Br)cc4)c3Cn3cncn3)s2)CC1 | – | – | 23.68 | 2.91 | –
FC(F)(F)C1(c2nnc(-c3nn(-c4ccccc4Cl)c(-c4ccc(Br)cc4)c3Cn3cncn3)s2)CC1 | 125 | 124 | – | 0.992 | –
FC(F)(F)c1ccccc1-n1nc(-c2nnc(C3(C(F)(F)F)CCC3)s2)c(Cn2cncn2)c1-c1ccc(Cl)cc1 | 11.8 | 76.8 | 23.68 | 6.48 | –
Clc1ccc(-c2c(Cn3cncn3)c(-c3nnc(C4(c5ccc(Cl)cc5)CC4)s3)nn2-c2ccccc2Cl)cc1 | 274 | 265 | 23.68 | 0.966 | –
FC(F)(F)C1(c2nnc(-c3nn(-c4ccc(Cl)cc4Cl)c(-c4ccc(Br)cc4)c3Cn3cncn3)s2)CC1 | – | – | 23.68 | 0.991 | –
CC1(c2nnc(-c3nn(-c4ccc(Cl)cc4Cl)c(-c4ccc(Cl)cc4)c3Cn3cncn3)s2)CC1 | – | – | 23.68 | 2.4 | –
FC(F)(F)C1(c2nnc(-c3nn(-c4ccccc4Cl)c(-c4ccc(Cl)cc4)c3Cn3cncn3)s2)CCC1 | – | – | 23.68 | 1.01 | –
Cc1ccc(C2(c3nnc(-c4nn(-c5ccc(Cl)cc5Cl)c(-c5ccc(Br)cc5)c4Cn4cncn4)s3)CC2)cc1 | – | – | 23.68 | 2.74 | –
CC(C)(C)c1nnc(-c2nn(-c3ccc(Cl)cc3Cl)c(-c3ccc(Cl)cc3)c2Cn2cncn2)s1 | 659 | 1140 | 23.68 | 1.73 | –
Clc1ccc(C2(c3nnc(-c4nn(-c5ccc(Cl)cc5Cl)c(-c5ccc(Br)cc5)c4Cn4cncn4)s3)CC2)cc1 | – | – | 23.68 | 0.877 | –
FC(F)(F)c1ccccc1-n1nc(-c2nnc(C3(C(F)(F)F)CCC3)s2)c(Cn2cncn2)c1-c1ccc(Br)cc1 | 6.3 | 27.6 | – | 4.38 | –
CC(C)(C)c1nnc(-c2nn(-c3ccccc3Cl)c(-c3ccc(Cl)cc3)c2Cn2cncn2)s1 | – | – | 23.68 | – | –
Clc1ccc(-c2c(Cn3cncn3)c(-c3nnc(C4(c5ccc(Cl)cc5)CC4)s3)nn2-c2ccc(Cl)cc2Cl)cc1 | – | – | 23.68 | – | –
FC(F)(F)C1(c2nnc(-c3nn(-c4ccc(Cl)cc4Cl)c(-c4ccc(Cl)cc4)c3Cn3cncn3)s2)CCC1 | 175 | 505 | 23.68 | – | EC50 [25]: > 100000 nM; Activity [26]: 34.45%; EC50 [27]: > 100000 nM; IC50 [11]: > 10000 nM; Activity [12]: Non-toxic; IC50 [4]: > 20000 nM; IC50 [5]: > 20000 nM; EC50 [28]: > 100000 nM; Activity [20]: 14.43%; EC50 [29]: > 100000 nM; Activity [6]: Non-toxic; IC50 [7]: > 20000 nM; IC50 [9]: > 20000 nM
FC(F)(F)C1(c2nnc(-c3nn(-c4ccc(Cl)cc4Cl)c(-c4ccc(Br)cc4)c3Cn3cncn3)s2)CCC1 | – | – | 23.68 | 3.27 | –
